The text below walks through data of US12065430B2, “Indazole compound or salt thereof” (TAIHO PHARMACEUTICAL CO., LTD., priority 2018, dated 2024).

This assay deals with G12C K-Ras4B (1-169) (Homo sapiens (Human), UniProt P01116, G12C). Briefly: Test of compounds on whether to bind to KRASG12C (LC-MS compound binding rate). The conditions noted are these: final compound concentration of 2 μM, 1 μM protein, 25° C. for 2 hours. Here is the method:
Test compounds were prepared in the form of a 10 mM DMSO solution.
K-Ras4B (1-169) and G12C K-Ras4B (1-169) proteins were mixed and diluted with a buffer (1×TBS, 0.1 mM TCEP) to prepare individual 1 μM protein solutions. A 10 mM test compound was diluted tenfold with DMSO to make a 1 mM solution, and then diluted fivefold with DMSO to make a 200 μM solution. The 200 μM solution was further diluted fivefold to make a 40 μM solution. When the final compound concentration was 10 μM, 1 μL of a 200 μM test compound was added to 19 μL of a 1 μM protein solution. When the final compound concentration was 2 μM, 1 μL of a 40 μM test compound was added to 19 μL of a 1 μM protein solution. The mixtures were stored in an incubator at 25° C. for 2 hours, and 80 μL of a 1×TBS solution containing 0.2% formic acid was added thereto to end the reaction, followed by LC-MS measurement. LC-MS measurement was performed using Xevo G2-S Q-Tof manufactured by Waters, and reverse-phase chromatography was performed with a desalting column. A mass spectrum of positive ions was obtained by electrospray. For a mass spectrum, a spectrum of a polyvalent ion was collectively converted to a molecular weight by using OpenLynx software by the MaxEnt technique, and a compound binding rate was obtained from the ratio of a signal intensity that corresponds to the molecular weight of a protein to a signal intensity that corresponds to the molecular weight of a compound binding to the protein.
By obtaining the compound binding rate for K-Ras4B (1-169) and the compound binding rate for G12C K-Ras4B (1-169) at the same time, information of the selectivity for G12C K-Ras4B (1-169) was obtained at the same time.
The test compounds were measured at their final compound concentration of 2 μM. […] Almost no compounds of the present invention binded to K-Ras4B (1-169). The “binding rate” (%) for each of K-Ras4B (1-169) and G12C K-Ras4B (1-169) refers to the ratio of the signal intensity of binded forms to the sum of the signal intensity of non-binded forms and the signal intensity of binded forms.
As to `C=CC(=O)N1C[C@@H](CC#N)[C@@H](NC(=O)c2c(C)nc(CNc3n[nH]c4cc(Cl)c(C(C)(C)C)cc34)n2C)C1` [Example 65, N-((3R,4R)-1-acryloyl-4-(cyanomethyl)pyrrolidin-3-yl)-2-(((5-(tert-butyl)-6-chloro-1H-indazol-3-yl)amino)methyl)-1,4-dimethyl-1H-imidazole-5-carboxamide], the “binding rate for G12C K-Ras4B (1-169)” value is “B (a binding rate of 60% or more and less than 80% is rated “B,”)”.
Take `C=CC(=O)N1CC(NC(=O)c2cnc(CNc3n[nH]c4cc(Cl)c(C(C)(C)C)nc34)n2C)C1` [Example 40, N-(1-acryloylazetidin-3-yl)-2-(((5-(tert-butyl)-6-chloro-1H-pyrazolo[4,3-b]pyridin-3-yl)amino)methyl)-1-methyl-1H-imidazole-5-carboxamide]: the “binding rate for G12C K-Ras4B (1-169)” value was “A (a binding rate of 80% or more is rated “A,”)”.
To `C=CC(=O)N1CC(NC(=O)c2cnc(CNc3n[nH]c4cc(Cl)c(C(C)(C)C)cc34)s2)C1` [Example 8, N-(1-acryloylazetidin-3-yl)-2-(((5-(tert-butyl)-6-chloro-1H-indazol-3-yl)amino)methyl)thiazole-5-carboxamide] belongs “B (a binding rate of 60% or more and less than 80% is rated “B,”)”; to `C=CC(=O)N1CC(NC(=O)c2cnc(CNc3n[nH]c4cc(Cl)c(C=C)cc34)n2C)C1` [Example 38, N-(1-acryloylazetidin-3-yl)-2-(((6-chloro-5-vinyl 1H-indazol-3-yl)amino)methyl)-1-methyl-1H-imidazole-5-carboxamide], “C (a binding rate of 40% or more and less than 60% is rated “C,”)”; to `C=CC(=O)N1C[C@@H](NC(=O)c2c(C)nc(CNc3n[nH]c4cc(Cl)c(C(C)(C)C)cc34)n2C)[C@H]1C` (relative stereo) [Example 52, N-((2R*,3R*)-1-acryloyl-2-methylazetidin-3-yl)-2-(((5-(tert-butyl)-6-chloro-1H-indazol-3-yl)amino)methyl)-1,4-dimethyl-1H-imidazole-5-carboxamide], “B (a binding rate of 60% or more and less than 80% is rated “B,”)”.
The entry for `C=CC(=O)N1CC(NC(=O)c2c(C)nc(CNc3n[nH]c4cc(Cl)c(C(C)(C)C)cc34)n2CCCC)C1` [Example 18, N-(1-acryloylazetidin-3-yl)-1-butyl 2-(((5-(tert-butyl)-6-chloro-1H-indazol-3-yl)amino)methyl)-4-methyl-1H-imidazole-5-carboxamide] is “B (a binding rate of 60% or more and less than 80% is rated “B,”)”.
The entry for `C=CC(=O)N1C[C@@H](O)[C@@H](NC(=O)c2c(C)nc(CNc3n[nH]c4cc(Cl)c(C(C)(C)C)cc34)n2C)C1` [Example 56, N-((3S,4R)-1-acryloyl-4-hydroxypyrrolidin-3-yl)-2-(((5-(tert-butyl)-6-chloro-1H-indazol-3-yl)amino)methyl)-1,4-dimethyl-1H-imidazole-5-carboxamide] is “C (a binding rate of 40% or more and less than 60% is rated “C,”)”; for `Cc1nc(CNc2n[nH]c3cc(Cl)c(C(C)(C)C)cc23)n(C(C)C)c1C(=O)NC1CN(C(=O)/C=C/CN2CCCCC2)C1` [Example 79, (E)-2-(((5-(tert-butyl)-6-chloro-1H-indazol-3-yl)amino)methyl)-1-isopropyl-4-methyl-N-(1-(4-(piperidin-1-yl)but-2-enoyl)azetidin-3-yl)-1H-imidazole-5-carboxamide] it is “E (a binding rate of less than 20% is rated “E.”)”.
Regarding `C=CC(=O)N1CC(NC(=O)c2c(CC)nc(CNc3n[nH]c4cc(Cl)c(C(C)(C)C)cc34)n2C)C1` [Example 31, N-(1-acryloylazetidin-3-yl)-2-(((5-(tert-butyl)-6-chloro-1H-indazol-3-yl)amino)methyl)-4-ethyl-1-methyl-1H-imidazole-5-carboxamide], the “binding rate for G12C K-Ras4B (1-169)” value is “D (a binding rate of 20% or more and less than 40% is rated “D,”)”.
The entry for `C=CC(=O)N1CC(NC(=O)c2c(C(F)F)nc(CNc3n[nH]c4cc(Cl)c(C(C)(C)C)cc34)n2C2CCN(C(C)=O)C2)C1` (stereo not shown) [Example 96, 1-(1-Acetylpyrrolidin-3-yl)-N-(1-acryloylazetidin-3-yl)-2-(((5-(tert-butyl)-6-chloro-1H-indazol-3-yl)amino)methyl)-4-(difluoromethyl)-1H-imidazole-5-carboxamide] is “A (a binding rate of 80% or more is rated “A,”)”.
To `C=CC(=O)N1CC(NC(=O)c2c(Cl)nc(CNc3n[nH]c4cc(Cl)c(C(C)(C)C)cc34)n2[C@@H]2CCN(C3COC3)C2)C1` [Example 121, (R)—N-(1-acryloylazetidin-3-yl)-2-(((5-(tert-butyl)-6-chloro-1H-indazol-3-yl)amino)methyl)-4-chloro-1-(1-(oxetan-3-yl)pyrrolidin-3-yl)-1H-imidazole-5-carboxamide] belongs “A (a binding rate of 80% or more is rated “A,”)”; to `C=CC(=O)N1CC(NC(=O)c2cnc(CNc3n[nH]c4cc(Cl)c(CC)cc34)n2C)C1` [Example 39, N-(1-acryloylazetidin-3-yl)-2-(((6-chloro-5-ethyl-1H-indazol-3-yl)amino)methyl)-1-methyl-1H-imidazole-5-carboxamide], “C (a binding rate of 40% or more and less than 60% is rated “C,”)”; to `C=CC(=O)N1CC(NC(=O)c2c(C)nc(CNc3n[nH]c4cc(Cl)c(C(C)(C)C)cc34)n2C2CC2)C1` [Example 23, N-(1-acryloylazetidin-3-yl)-2-(((5-(tert-butyl)-6-chloro-1H-indazol-3-yl)amino)methyl)-1-cyclopropyl-4-methyl-1H-imidazole-5-carboxamide], “A (a binding rate of 80% or more is rated “A,”)”.
To `C=CC(=O)N1C[C@@H](CO)[C@@H](NC(=O)c2c(C)nc(CNc3n[nH]c4cc(Cl)c(C(C)(C)C)cc34)n2C)C1` [Example 58, N-((3R,4R)-1-acryloyl-4-(hydroxymethyl)pyrrolidin-3-yl)-2-(((5-(tert-butyl)-6-chloro-1H-indazol-3-yl)amino)methyl)-1,4-dimethyl-1H-imidazole-5-carboxamide] belongs “B (a binding rate of 60% or more and less than 80% is rated “B,”)”; to `C=CC(=O)N1C[C@@H](C)[C@@H](NC(=O)c2c(F)nc(CNc3n[nH]c4cc(Cl)c(C(C)(C)C)cc34)n2C)C1` [Example 74, N-((3R,4R)-1-acryloyl-4-methylpyrrolidin-3-yl)-2-(((5-(tert-butyl)-6-chloro-1H-indazol-3-yl)amino)methyl)-4-fluoro-1-methyl-1H-imidazole-5-carboxamide], “A (a binding rate of 80% or more is rated “A,”)”.
On to `C=CC(=O)N1C[C@@H](C)[C@@H](NC(=O)c2c(C)nc(CNc3n[nH]c4cc(Cl)c(C(C)(C)C)cc34)n2C)C1` [Example 55, N-((3R,4R)-1-acryloyl-4-methylpyrrolidin-3-yl)-2-(((5-(tert-butyl)-6-chloro-1H-indazol-3-yl)amino)methyl)-1,4-dimethyl-1H-imidazole-5-carboxamide], for which the “binding rate for G12C K-Ras4B (1-169)” value is “A (a binding rate of 80% or more is rated “A,”)”.
On to `C=CC(=O)N1CCC(NC(=O)c2c(C)nc(CNc3n[nH]c4cc(Cl)c(C(C)(C)C)cc34)n2C)CC1` [Example 47, N-(1-acryloylpiperidin-4-yl)-2-(((5-(tert-butyl)-6-chloro-1H-indazol-3-yl)amino)methyl)-1,4-dimethyl-1H-imidazole-5-carboxamide], for which the “binding rate for G12C K-Ras4B (1-169)” value is “C (a binding rate of 40% or more and less than 60% is rated “C,”)”.
To `[2H]C([2H])(Nc1n[nH]c2cc(Cl)c(C(C)(C)C)cc12)c1nc(C)c(C(=O)NC2CN(C(=O)C=C)C2)n1C` [Example 5, N-(1-acryloylazetidin-3-yl)-2-(((5-(tert-butyl)-6-chloro-1H-indazol-3-yl)amino)methyl-d2)-1,4-dimethyl-1H-imidazole-5-carboxamide] belongs “A (a binding rate of 80% or more is rated “A,”)”.
To `C=CC(=O)N1C[C@@H](CF)[C@@H](NC(=O)c2c(C)nc(CNc3n[nH]c4cc(Cl)c(C(C)(C)C)cc34)n2C)C1` [Example 66, N-((3R,4R)-1-acryloyl-4-(fluoromethyl)pyrrolidin-3-yl)-2-(((5-(tert-butyl)-6-chloro-1H-indazol-3-yl)amino)methyl)-1,4-dimethyl-1H-imidazole-5-carboxamide] belongs “A (a binding rate of 80% or more is rated “A,”)”.
